Source: patent US6960470B1 (priority 1998, dated 2005)

Test system: hippocampal slices from wt and Δ9 mutant (PS-1) animals
Format: cell-based
Conditions: flunitrazepam in the bathing medium; Δ9 mutant slices

In the case of CN1C(=O)CN=C(c2ccccc2F)c2cc([N+](=O)[O-])ccc21 [flunitrazepam], the “potentiation in mutants (+FLU) compared with the wt (−FLU)” value is reported as “potentiation to almost the wt levels”.
